The nature of one series: in vitro. Particulars: human, Caco-2.
Another series relates to liver (hepatotoxicity). Particulars: Hazard Evaluation Support System Integrated Platform, cited from earlier work.
For series [1] the following is noted: fraction absorbed, oral; cited from earlier work.

Structures are written as SMILES. Where two headings read alike, the source gives them in different places.

By Papp is commonly meant the rate of passage across a membrane or cell layer, normalised by area and donor concentration.

The molecule `Cc1cccc(N)c1C` [2,3-dimethylaniline] returned an apparent permeability (Papp) in “in vitro” of 62.4 ± 3 ×10⁻⁶ cm/s. Besides, in the series on liver (hepatotoxicity) (Table 1), the “hepatic NOEL” value is listed as 12 mg/kg/day. For the molecule `Cc1ccc(N)c(C)c1` [2,4-dimethylaniline], in “in vitro”, the Papp was found to be 66.1 ± 2 ×10⁻⁶ cm/s. In addition, in the series on liver (hepatotoxicity) (Table 1), the “hepatic NOEL” value was 2 mg/kg/day. The molecule `Nc1ccccc1-c1ccccc1` [2-aminobiphenyl] gave a Papp in the series “in vitro” of 57.6 ± 1.1 ×10⁻⁶ cm/s. Further, the “hepatic NOEL” value with liver (hepatotoxicity) (Table 1) is 100 mg/kg/day. As for `Nc1ccccc1Cl` [2-chloroaniline], the Papp in the series “in vitro” was found to be 89.3 ± 2.6 ×10⁻⁶ cm/s. `Oc1ccccc1Cl` [2-chlorophenol] returned a Papp in “in vitro” of 75.2 ± 8.3 ×10⁻⁶ cm/s. Besides, the “hepatic NOEL” value in the series on liver (hepatotoxicity) (Table 2) is 200 mg/kg/day. `Oc1nc2ccccc2[nH]1` [2-hydroxybenzimidazole] came in with a Papp in the series “in vitro” of 50.7 ± 1.6 ×10⁻⁶ cm/s. On the same count and under the same terms, under `Oc1ccccc1-c1ccccc1` [2-hydroxybiphenyl] stands 33.4 ± 2.9 ×10⁻⁶ cm/s. The molecule `Sc1nc2ccccc2[nH]1` [2-mercaptobenzimidazole] returned a Papp in the series “in vitro” of 67.3 ± 1.8 ×10⁻⁶ cm/s. Also, the “hepatic NOEL” value in the series with liver (hepatotoxicity) (Table 1) is recorded as 2 mg/kg/day. As to `Sc1ncc[nH]1` [2-mercaptoimidazole], the apparent permeability coefficient (Papp) in “in vitro” is 9.1 ± 0.3 ×10⁻⁶ cm/s.

Molecule `COc1cc([N+](=O)[O-])ccc1N` [2-methoxy-4-nitroaniline] displayed a Papp in the series “in vitro” of 55.2 ± 7 ×10⁻⁶ cm/s. In addition, in the series on liver (hepatotoxicity) (Table 2), the “hepatic NOEL” value is 100 mg/kg/day. In “in vitro”, `Cc1ccc(N)cc1C` [3,4-dimethylaniline] returned a Papp of 54.1 ± 5.8 ×10⁻⁶ cm/s. Further, the “hepatic NOEL” value in the series on liver (hepatotoxicity) (Table 1) is on record as 50 mg/kg/day.

`Cc1cc(C)cc(N)c1` [3,5-dimethylaniline]: the Papp in “in vitro” came out at 67.4 ± 11.3 ×10⁻⁶ cm/s. For the same molecule, in the series with liver (hepatotoxicity) (Table 1), the “hepatic NOEL” value is 10 mg/kg/day. As for `Nc1cccc(S(=O)(=O)O)c1` [3-aminobenzenesulfonic acid], the Papp in the series “in vitro” came to 2.1 ± 0.3 ×10⁻⁶ cm/s. The molecule `Nc1cccc(O)c1` [3-aminophenol] showed an apparent permeability (Papp) in “in vitro” of 51.3 ± 2.3 ×10⁻⁶ cm/s. This Papp is about 24-fold higher than that of the molecule before.

Take `N#Cc1cccnc1` [3-cyanopyridine]: in the series “in vitro”, the Papp is 56.9 ± 7 ×10⁻⁶ cm/s. In the series on liver (hepatotoxicity) (Table 1), the “hepatic NOEL” value is reported as 5 mg/kg/day. Regarding `CCc1cccc(O)c1` [3-ethylphenol], the Papp in the series “in vitro” is 51.5 ± 5 ×10⁻⁶ cm/s. Moreover, the “hepatic NOEL” value in the series with liver (hepatotoxicity) (Table 2) was 300 mg/kg/day. The molecule `Oc1cccc(-c2ccccc2)c1` [3-hydroxybiphenyl] displayed a Papp in “in vitro” of 28.4 ± 2.2 ×10⁻⁶ cm/s.

In the case of `Nc1cccc([N+](=O)[O-])c1` [3-nitroaniline], the apparent permeability (Papp) in “in vitro” came to 52 ± 5 ×10⁻⁶ cm/s. The “hepatic NOEL” value with liver (hepatotoxicity) (Table 1) is 15 mg/kg/day.

In turn, `Cc1cc(Cl)ccc1O` [4-chloro-o-cresol] returned a Papp in the series “in vitro” of 75.4 ± 3.9 ×10⁻⁶ cm/s. Further, in the series on liver (hepatotoxicity) (Table 2), the “hepatic NOEL” value is recorded as 250 mg/kg/day. Take `Oc1ccc(Cl)cc1` [4-chlorophenol]: the apparent permeability coefficient (Papp) in the series “in vitro” came to 43.1 ± 3.7 ×10⁻⁶ cm/s. The molecule `CCc1ccc(O)cc1` [4-ethylphenol] gave an apparent permeability coefficient (Papp) in “in vitro” of 43.7 ± 2.3 ×10⁻⁶ cm/s. In the series with liver (hepatotoxicity) (Table 2), the “hepatic NOEL” value was 100 mg/kg/day. Molecule `Oc1ccc(-c2ccccc2)cc1` [4-hydroxybiphenyl] showed a Papp in the series “in vitro” of 44.1 ± 2.8 ×10⁻⁶ cm/s. In the case of `CCC(C)c1ccc(O)cc1` (centres unmarked) [4-sec-butylphenol], the apparent permeability coefficient (Papp) in “in vitro” was 40.2 ± 1.9 ×10⁻⁶ cm/s. Regarding `CC(C)(c1ccccc1)c1ccc(O)cc1` [4-α-cumylphenol], the apparent permeability coefficient (Papp) in the series “in vitro” turned out to be 19.5 ± 3.4 ×10⁻⁶ cm/s. Besides, the “hepatic NOEL” value in the series on liver (hepatotoxicity) (Table 2) was 100 mg/kg/day.

In “in vitro”, `Cc1cc(N)c(S(=O)(=O)O)cc1Cl` [5-amino-2-chlorotoluene-4-sulfonic acid] returned a Papp of 2 ± 0.2 ×10⁻⁶ cm/s. Besides, in the series with liver (hepatotoxicity) (Table 1), the “hepatic NOEL” value was 1000 mg/kg/day. In the series “in vitro”, `CCOc1ccc2ccc(=O)oc2c1` [7-ethoxycoumarin] yielded an apparent permeability coefficient (Papp) of 75 ± 4.8 ×10⁻⁶ cm/s. For the molecule `O=c1ccc2ccc(O)cc2o1` [7-hydroxycoumarin], the apparent permeability (Papp) in “in vitro” was found to be 103 ± 17 ×10⁻⁶ cm/s. `CN(C)c1ccccc1` [N,N-dimethylaniline] registered a Papp in the series “in vitro” of 99.9 ± 12.9 ×10⁻⁶ cm/s. `CCNc1ccccc1` [N-ethylaniline]: in the series “in vitro”, the Papp came to 66 ± 1 ×10⁻⁶ cm/s. In addition, in the series on liver (hepatotoxicity) (Table 1), the “hepatic NOEL” value is on record as 5 mg/kg/day.

As for `CNc1ccccc1` [N-methylaniline], in “in vitro”, the Papp was found to be 46.3 ± 5 ×10⁻⁶ cm/s. Further, the “hepatic NOEL” value in the series with liver (hepatotoxicity) (Table 1) was 5 mg/kg/day. Molecule `Nc1ccccc1` [aniline] registered an apparent permeability (Papp) in “in vitro” of 54.4 ± 2.6 ×10⁻⁶ cm/s. In the case of `CC(C)NCC(O)COc1ccc(CC(N)=O)cc1` (centres unmarked) [atenolol], the “reported human Fa” value in series [1] was 50 [7] %. On to `COP(=O)(OC)SCn1c(=O)oc2cc(Cl)cnc21` [azamethiphos], for which, in the series “in vitro”, the Papp turned out to be 40.2 ± 1.8 ×10⁻⁶ cm/s.

For the molecule `c1ccc2[nH]cnc2c1` [benzimidazole], the apparent permeability coefficient (Papp) in “in vitro” stood at 73 ± 0.6 ×10⁻⁶ cm/s. Consider `O=C(O)c1ccccc1` [benzoic acid], for which the Papp in the series “in vitro” came out at 149 ± 16 ×10⁻⁶ cm/s. This Papp lies about 2-fold higher than the previous one.

With `CN(C)CCCOc1nn(Cc2ccccc2)c2ccccc12` [benzydamine, reference compound], the Papp in the series “in vitro” was 1.6 ± 0.1 ×10⁻⁶ cm/s. On to `CC(C)(c1ccc(O)cc1)c1ccc(O)cc1` [bisphenol A], for which, in the series “in vitro”, the apparent permeability (Papp) was 32.1 ± 1.3 ×10⁻⁶ cm/s. For the same molecule, in the series with liver (hepatotoxicity) (Table 1), the “hepatic NOEL” value is reported as 200 mg/kg/day. Molecule `[H]/N=C(/N)c1ccc(NCc2nc3cc(C(=O)N(CCC(=O)O)c4ccccn4)ccc3n2C)cc1` [dabigatran, reference compound] yielded a Papp in the series “in vitro” of 3.8 ± 1.7 ×10⁻⁶ cm/s.

`COc1ccc2c3c1O[C@H]1[C@@H](O)CC[C@H]4[C@@H](C2)N(C)CC[C@@]341` [dihydrocodeine, reference compound] gave a Papp in the series “in vitro” of 2.4 ± 0.1 ×10⁻⁶ cm/s. In turn, `c1ccc(Nc2ccccc2)cc1` [diphenylamine] returned a Papp in “in vitro” of 15.1 ± 1.1 ×10⁻⁶ cm/s.

In the series “in vitro”, `O=C(O)CNC(=O)c1ccccc1` [hippuric acid] had a Papp of 0.6 ± 0.1 ×10⁻⁶ cm/s.

In “in vitro”, `COc1ccc(C(=O)NCc2ccc(OCCN(C)C)cc2)cc1OC` [itopride, reference compound] returned an apparent permeability coefficient (Papp) of 1.2 ± 0.3 ×10⁻⁶ cm/s. Take `Cc1cccc(O)c1` [m-cresol]: the Papp in “in vitro” amounted to 85.1 ± 3.5 ×10⁻⁶ cm/s. In the series with liver (hepatotoxicity) (Table 1), the “hepatic NOEL” value is reported as 100 mg/kg/day. `Cc1cccc(Nc2ccccc2C(=O)O)c1C` [mefenamic acid, reference compound] returned a Papp in the series “in vitro” of 180 ± 8.3 ×10⁻⁶ cm/s. Consider `COCCc1ccc(OCC(O)CNC(C)C)cc1` (centres unmarked) [metoprolol, reference compound], for which, in “in vitro”, the apparent permeability coefficient (Papp) is 3.4 ± 0.1 ×10⁻⁶ cm/s.

Consider `CN1CCN2c3ncccc3Cc3ccccc3C2C1` (centres unmarked) [mirtazapine, reference compound], for which the apparent permeability (Papp) in “in vitro” came to 4.6 ± 0.3 ×10⁻⁶ cm/s. This Papp and that of the molecule before are within 1.5-fold of each other. Regarding `CCCCOC(=O)c1ccccc1C(=O)O` [monobutyl phthalate], the Papp in the series “in vitro” amounted to 31.8 ± 0.8 ×10⁻⁶ cm/s.

In the case of `Cc1ccccc1O` [o-cresol], in the series “in vitro”, the apparent permeability (Papp) came to 90.5 ± 6.4 ×10⁻⁶ cm/s. Same read-out and setting: under `Cc1cc2c(s1)Nc1ccccc1N=C2N1CCN(C)CC1` [olanzapine, reference compound] stands 3.5 ± 0.3 ×10⁻⁶ cm/s.

In the case of `COc1ccc2[nH]c([S+]([O-])Cc3ncc(C)c(OC)c3C)nc2c1` (centres unmarked) [omeprazole, reference compound], the “reported human Fa” value in series [1] was 95 [7] %. For `Nc1ccc(C(=O)O)cc1` [p-aminobenzoic acid], in “in vitro”, the apparent permeability coefficient (Papp) is 58.7 ± 4 ×10⁻⁶ cm/s. `Cc1ccc(O)cc1` [p-cresol]: the Papp in the series “in vitro” came out at 50.7 ± 4.5 ×10⁻⁶ cm/s. The same measure, in the same setting: the value for `O=C(O)c1ccc(O)cc1` [p-hydroxybenzoic acid] was 60.9 ± 3 ×10⁻⁶ cm/s; that for `O=C1NC(=O)c2ccccc21` [phthalimide] was 93.3 ± 6.9 ×10⁻⁶ cm/s; that for `CC(=O)[C@H]1CC[C@H]2[C@@H]3CCC4=CC(=O)CC[C@]4(C)[C@H]3CC[C@]12C` [progesterone, reference compound] was 11.3 ± 2 ×10⁻⁶ cm/s.

In the series “in vitro”, `CC(C)NCC(O)COc1cccc2ccccc12` (centres unmarked) [propranolol, reference compound] returned an apparent permeability (Papp) of 2.9 ± 0.3 ×10⁻⁶ cm/s.

Consider `N#Cc1ccc(C#N)cc1` [terephthalonitrile], for which, in “in vitro”, the Papp was 57.3 ± 1.3 ×10⁻⁶ cm/s. Moreover, the “hepatic NOEL” value with liver (hepatotoxicity) (Table 1) is reported as 20 mg/kg/day.

As for `O=C1CCC(N2C(=O)c3ccccc3C2=O)C(=O)N1` (centres unmarked) [thalidomide, reference compound], the apparent permeability (Papp) in “in vitro” is 23.5 ± 1.9 ×10⁻⁶ cm/s. The molecule `CCCCNC(=O)NS(=O)(=O)c1ccc(C)cc1` [tolbutamide, reference compound] displayed a Papp in the series “in vitro” of 122 ± 11 ×10⁻⁶ cm/s. Compared with the last molecule, the Papp is about 5.2-fold higher. On the same count and under the same terms, under `CC(=O)CC(c1ccccc1)c1c(O)c2ccccc2oc1=O` (centres unmarked) [warfarin, reference compound] stands 121 ± 5 ×10⁻⁶ cm/s.

The values above are taken from PMC6976901 (Toxicology Reports, 2020).
